In article PMC6199744, “Development of Chemical Proteomics for the Folateome and Analysis of the Kinetoplastid Folateome” (ACS Infectious Diseases, 2018):
Where “and” joins values, the source holds several entries; their conditions need not be identical. Equal values may be shown once. Read-outs that look alike come from different tables or passages of the source.

System: T. brucei lysate proteins
Type: binding, Trypanosoma brucei

CCCCCCOc1cccc(Cc2cnc(N)nc2N)c1 [compound 2]
fold change - vehicle control: 1 and 0.55 and 0.88 and 0.98 and 0.99
fold change - vehicle control (protein RHS6A (CZT00028360.1)): 0.94
fold change - vehicle control (protein TB09.160.1250 HY[…], CONSERVED): 0.96
fold change - vehicle control (protein TB09.160.3670 RIBOSOMAL PROTEIN S6, PUTATIVE): 0.84
fold change - vehicle control (protein TB09.211.2630 60S RIBOSOMAL PROTEIN L23, PUTATIVE): 1.12
fold change - vehicle control (protein TB09.211.4513 KIN[…] PROTEIN KMP-11): 0.9
fold change - vehicle control (protein TB11.V4.0005 RIBONUCLEOSIDE-DIPHOSPHATE REDUCTASE SMALL CHAIN): 0.86
fold change - vehicle control (protein TB11.01.0870 R[…] A, 51KDA SUBUNIT, PUTATIVE): 1.05
fold change - vehicle control (protein TB11.01.2560 40S RIBOSOMAL PROTEIN SA, PUTATIVE): 1.05
fold change - vehicle control (protein TB11.01.4880 HY[…], CONSERVED): 0.89
fold change - vehicle control (protein TB11.01.7090 HY[…], CONSERVED): 0.9
fold change - vehicle control (protein TB11.02.2510 GUANINE NUCLEOTIDE-BINDING BETA SUBUNIT-LIKE PROTEIN): 0.96
fold change - vehicle control (protein TB11.02.4170 40S RIBOSOMAL PROTEIN S5, PUTATIVE): 1.39
fold change - vehicle control (protein TB11.03.0250 C[…]): 1.72
fold change - vehicle control (protein TB11.46.0009 HY[…], CONSERVED): 1.02
fold change - vehicle control (protein TB427TMP.01.0620 HY[…], CONSERVED): 0.96
fold change - vehicle control (protein TB427TMP.01.1475 40S RIBOSOMAL PROTEIN S27, PUTATIVE): 1.03
fold change - vehicle control (protein TB427TMP.01.4280 HY[…], CONSERVED): 0.85
fold change - vehicle control (protein TB427TMP.01.4650 HY[…], CONSERVED): 1.21
fold change - vehicle control (protein TB427TMP.01.4810 HY[…], CONSERVED): 0.93
fold change - vehicle control (protein TB427TMP.01.5680 HY[…], CONSERVED): 0.97
fold change - vehicle control (protein TB427TMP.01.8390 HY[…], CONSERVED): 0.8
fold change - vehicle control (protein TB427TMP.02.0230 HY[…], CONSERVED): 1.22
fold change - vehicle control (protein TB427TMP.02.0460 NUCLEOPORIN): 0.88
fold change - vehicle control (protein TB427TMP.02.1106 NUCLEOBASE/NUCLEOSIDE TRANSPORTER 8 1): 1.35
fold change - vehicle control (protein TB427TMP.160.2050 ENDO-BETA-N-ACETYLGLUCOSAMINIDASE, PUTATIVE): 0.89
fold change - vehicle control (protein TB427TMP.160.4310 GLUTAMATE DEHYDROGENASE): 0.49
fold change - vehicle control (protein TB427TMP.160.4450 40S RIBOSOMAL PROTEIN S3, PUTATIVE): 1.06
fold change - vehicle control (protein TB427TMP.160.4630 HY[…], CONSERVED): 0.91
fold change - vehicle control (protein TB427TMP.160.5200 HY[…], CONSERVED): 0.86
fold change - vehicle control (protein TB427TMP.160.5670 HY[…], CONSERVED): 0.81
fold change - vehicle control (protein TB427TMP.211.0930 POLYADENYLATE-BINDING PROTEIN 1): 1.27
fold change - vehicle control (protein TB427TMP.211.1750 MIT[…] PROTEIN, PUTATIVE): 0.97
fold change - vehicle control (protein TB427TMP.211.3510 ATP-DEPENDENT DEAD/H RNA HELICASE, PUTATIVE): 0.96
fold change - vehicle control (protein TB427TMP.211.4540 RNA-BINDING PROTEIN, PUTATIVE): 0.6
fold change - vehicle control (protein TB427TMP.244.2840 HY[…], CONSERVED): 1
fold change - vehicle control (protein TB427.01.1240 CYTIDINE TR[…], PUTATIVE): 0.8
fold change - vehicle control (protein TB427.01.2570 COATOMER BETA SUBUNIT): 0.82
fold change - vehicle control (protein TB427.01.3910 HY[…], CONSERVED): 0.61
fold change - vehicle control (protein TB427.02.450 RETRO[…] SPOT (RHS) PROTEIN, PUTATIVE): 0.84
fold change - vehicle control (protein TB427.04.3350 HY[…], CONSERVED): 1.08
fold change - vehicle control (protein TB427.04.3890 ATP-DEPENDENT RNA HELICASE, PUTATIVE): 0.83
fold change - vehicle control (protein TB427.04.4870 AMINO ACID TRANSPORTER, PUTATIVE): 1.02
fold change - vehicle control (protein TB427.04.750 50S RIBOSOMAL PROTEIN L7AE, PUTATIVE): 0.95
fold change - vehicle control (protein TB427.04.960 HY[…], CONSERVED): 0.72
fold change - vehicle control (protein TB427.05.1490 HY[…], CONSERVED): 0.95
fold change - vehicle control (protein TB427.05.1780 HY[…], CONSERVED): 0.73
fold change - vehicle control (protein TB427.05.3030 INTR[…] PROTEIN IFT122, PUTATIVE): 0.96
fold change - vehicle control (protein TB427.06.3110 PROTEIN KINASE, PUTATIVE (CRK11)): 0.94
fold change - vehicle control (protein TB427.06.5110 DAMAGE-SPECIFIC DNA BINDING PROTEIN, PUTATIVE): 0.9
fold change - vehicle control (protein TB427.07.2670 HY[…], CONSERVED): 0.98
fold change - vehicle control (protein TB427.07.3040 HY[…], CONSERVED): 0.96
fold change - vehicle control (protein TB427.07.3530 HY[…], CONSERVED): 0.91
fold change - vehicle control (protein TB427.07.4970 GLUTAMINE SYNTHETASE, PUTATIVE): 0.92
fold change - vehicle control (protein TB427.07.5560 GLUCOSAMINE-FRUCTOSE-6-PHOSPHATE AMINOTRANSFERASE, PUTATIVE): 0.87
fold change - vehicle control (protein TB427.07.5890 HY[…], CONSERVED): 0.8
fold change - vehicle control (protein TB427.07.7070 HY[…], CONSERVED): 0.79
fold change - vehicle control (protein TB427.07.7460 HY[…], CONSERVED): 0.98
fold change - vehicle control (protein TB427.08.1500 HY[…], CONSERVED): 0.94
fold change - vehicle control (protein TB427.08.1840 HY[…], CONSERVED): 0.7
fold change - vehicle control (protein TB427.08.1960 HY[…], CONSERVED): 0.83
fold change - vehicle control (protein TB427.08.2080 HY[…], CONSERVED): 0.75
fold change - vehicle control (protein TB427.08.3750 NUCLEOLAR PROTEIN, PUTATIVE): 1.04
fold change - vehicle control (protein TB427.08.6390 LYSOPHOSPHOLIPASE, PUTATIVE): 0.97
fold change - vehicle control (protein TB427.10.10610 PROTEIN TYROSINE PHOSPHATASE, PUTATIVE): 0.94
fold change - vehicle control (protein TB427.10.1100 60S RIBOSOMAL PROTEIN L9, PUTATIVE): 1.08
fold change - vehicle control (protein TB427.10.12740): 0.97
fold change - vehicle control (protein TB427.10.15720 […]-ATP-ASE SUBUNIT 9): 0.81
fold change - vehicle control (protein TB427.10.2440 METACASPASE MCA4): 0.88
fold change - vehicle control (protein TB427.10.2900 IMPORTIN BETA-1 SUBUNIT, PUTATIVE): 0.94
fold change - vehicle control (protein TB427.10.3470 HY[…], CONSERVED): 0.79
fold change - vehicle control (protein TB427.10.4110 60S RIBOSOMAL PROTEIN L30): 0.93
fold change - vehicle control (protein TB427.10.4610 […]-MANNOSE SYNTHASE, PUTATIVE): 0.93
fold change - vehicle control (protein TB427.10.5250 HY[…], CONSERVED): 0.89
fold change - vehicle control (protein TB427.10.5840 T[…] 1-BETA, PUTATIVE): 0.85
fold change - vehicle control (protein TB427.10.7410 SUCCINYL-COA LIGASE GDP-FORMING] BETA-CHAIN, PUTATIVE): 0.76
fold change - vehicle control (protein TB927.10.12960 RAS-RELATED PROTEIN RAB-5): 1.03
fold change - vehicle control (protein TB927.10.14800 PROTEIN KINASE, PUTATIVE): 1.13
fold change - vehicle control (protein TB927.10.2980 […]-ATPASE SUBUNIT 11): 1.09
fold change - vehicle control (protein TB927.10.3660 ASPARTATE AMINOTRANSFERASE): 1.09
fold change - vehicle control (protein TB927.10.4570 […] 2): 0.79
fold change - vehicle control (protein TB927.10.5140 PROTEIN KINASE, PUTATIVE): 0.91
fold change - vehicle control (protein TB927.10.6510 CHAPERONIN HSP60, MIT[…]): 0.96
fold change - vehicle control (protein TB927.3.1840 3-OXO-5-ALPHA-STEROID 4-DEHYDROGENASE, PUTATIVE): 1.16
fold change - vehicle control (protein TB927.3.3780 TRYPAREDOXIN): 0.92
fold change - vehicle control (protein TB927.3.740 HY[…], CONSERVED): 0.95
fold change - vehicle control (protein TB927.4.2740 HY[…], CONSERVED): 0.85
fold change - vehicle control (protein TB927.4.3590 T[…] 1-BETA, PUTATIVE): 0.81
fold change - vehicle control (protein TB927.6.4320 HY[…], CONSERVED): 0.98
fold change - vehicle control (protein TB927.7.2550 […] SUBUNIT 5): 0.92
fold change - vehicle control (protein TB927.7.2980 HY[…], CONSERVED): 0.88
fold change - vehicle control (protein TB927.7.5340 HY[…], CONSERVED): 1.48
fold change - vehicle control (protein TB927.7.7430 ATP SYNTHASE ALPHA CHAIN, MIT[…]): 0.92
fold change - vehicle control (protein TB927.8.1990 PEROXIDOXIN): 1.04
fold change - vehicle control (protein TB927.8.4720 AMINO ACID TRANSPORTER, PUTATIVE): 1.06
